# Patent US20020127208A1, “Method of transplantation using chemotherapy-treated allogeneic cells that enhance immune responses without graft versus host disease” (priority 2000, published 2002)
# Columns and labels:
# responder splenocytes = experiment: Proliferative response to allo-antigen (MLR) and mitogen, thymidine incorporation; format: cell-based, mouse; details: prior exposure to 20 μg/ml for 24 hours, vs control
# Source text: A. Fludarabine attenuates the proliferative response of spleen cells to allogeneic stimulation (MLR) or mitogenic stimulation (con A). […] Strain combinations of DBA versus BL6 and BL6 versus DBA were used in the MLR experiments. CPM is expressed as percent of non-treated control.
# 4×10^6 cells/ml responder cells (either B10.BR, DBA/2, or Balb/c) were co-cultured with 2×10^6 irradiated (25 Gy) stimulator cells/ml (C57.BL6) in complete media with 10 U/ml IL-2 (Chiron Corporation, Emeryville, Calif.) and 10 ng/ml IL-7 (PeproTech Inc., Rocky Hill, N.J.) in 96 well plates. Proliferation was monitored by measuring DNA synthesis/thymidine incorporation. Cultures were pulsed with 1 uCi/well of tritiated thymidine (NEN Life Sciences, Boston, Mass.) on day 6, harvested onto filtermats using a Tomtec Harvester (Hamden, Conn.) on day 7, and read on MicroBeta TriLux counter (PerkinElmer, Inc., Gaithersburg, Md.).
# [1] = system: lethally irradiated B10.BR (H2k) recipient mice; experiment: MHC mis-matched C57.BL6 to B10.BR transplant model: survival, GvHD (weight), donor engraftment; format: in vivo, mouse; details: splenocytes treated with 20 μg/ml vs control or other doses (0, 3, 10, 40 μg/ml)
# Source text: Lethally irradiated (11 Gy) B10.BR (H2^k) recipient mice were transplanted with 1×10^6 BL6 (H2^b) TCD-BM cells (n=40, thin line). […] Survival and weight change data are derived from 2-6 individual experiments using 5 or 10 animals per group. Kaplan-Meier survival determinations are shown in A (ticks indicate time points at which individual experiments were terminated). Trend lines representing the mean weight change (percent body weight) for each group are shown in B. Trend lines were calculated using a moving average with a periodicity of 3.
# 1×10^6 TCD-BM cells and splenocytes from BL6 strains having different Thy1.1 or Thy1.2 isotypes were administered to lethally irradiated B10.BR mice. […] Donor splenocyte derived CD4+ (gray bars) and CD8+ (black bars) were quantified in the peripheral blood of recipient mice 2-4 months post-transplant.
# B10.BR recipients were lethally irradiated and transplanted with 1×10^6 TCD-BM from CD45.1+ C57.BL6 donors. […] The fraction of blood T-cells derived from recipient, donor BM, and donor spleen were determined at day +27 post-transplant, using markers for T-cells (CD3), recipient-type cells (H2^k), donor-type cells (H2^b), and CD45.1/CD45.2 isoforms.
# Recipient mice were irradiated 1 day prior to transplant using a ^137CS source at a rate of 1.24 Gy/min. […] The mice were monitored daily for survival; moribund animals were euthanized. […]
# MCMV [2] = experiment: Adoptive immunotherapy against MCMV lethality, 10x10^6 lymphocytes, B/6 to F1 BMT; format: in vivo, mouse; details: day +120 post-BMT, MCMV infected; for % survival, immune splenocytes / Survivors/Total, immune splenocytes: 10×10^6 MCMV-immune lymphocytes; for % survival, naive splenocytes / Survivors/Total, naive splenocytes: 10×10^6 naive lymphocytes
# Experimental: Spleens were removed from either untreated PepBoy mice (naive donors), or those that had been inoculated with 10^5-10^6 PFU MCMV 2-4 months earlier (immune donors).
# To generate irradiated splenocytes for adoptive immunotherapy, cells were harvested after 24 hour culture and exposed to a single fraction of radiation from a ^137Cs source for a total of 7.5 Gy. S-59 psoralen (Cerus Corporation, Concord, Calif.) was added to some splenocytes cultures at the end of the 24 hour culture period at a final concentration of 2 nM. The cells in a T75 tissue culture flask were then placed on a UVA (320-400 nm) illumination device with a nominal fluorescence of 7 mW (Cole Parmer, Vernon Hill, Ill.) and illuminated for 5 mins to achieve 3.0 J/cm^2 equivalent UVA dose. Control (untreated) splenocytes were harvested after 24 hour culture without other interventions. For all four groups, lymphocytes were washed at the end of the culture/treatment period and the appropriate dosage of viable cells was used for adoptive immunotherapy.
# One day prior to transplant, recipient F1 mice were conditioned using a ^137Cs source at a dose rate of 1.24 Gy/min. Two doses of 5.5 Gy were administered, 3 hours apart, for a total lethal dose of 11 Gy. Irradiated mice were given free access to drinking water containing oral antibiotics (1.1 mg/ml neomycin sulfate and 1000 U/ml polymyxin sulfate; Sigma, St. Louis, Mo.) starting 3 days prior to irradiation and continuing through the end of the experimental period. 5×10^6 T-cell depleted (TCD) BM cells in a total volume of 0.2 ml HBSS/FBS were injected into the tail vein of F1 mice on the day following irradiation. In adoptive immunotherapy experiments, the appropriate number of donor splenocytes were mixed with TCD BM cells and injected simultaneously in 0.2 ml total volume. Two hours after BMT, mice were injected intraperitoneally with appropriate MCMV inocula diluted in DMEM/CS. Control (uninfected) mice received DMEM/CS alone. Mice were evaluated daily for morbidity and mortality. The development of clinical GvHD was prospectively monitored by weighing mice twice weekly, as well as observing for alopecia and/or ruffled fur, diarrhea, and decreased activity with a “hunched over” appearance. Moribund mice were euthanized based on Emory IACUC end-points and protocols.
# Lymphocytes were prepared from the spleens of naïve or MCMV-immune B/6 donors and 10×10^6 or 30×10^6 were infused IV at the time of B/6→F1 allogeneic BMT. […] Some groups of mice were subsequently infected with 2×10^4 PFU MCMV at two hours after BMT, a viral inoculum expected to produce 90-100% lethality (FIG. 8B).
# Table 2: Effect of adoptive immunotherapy on the survival of B/6→F1 BMT mice following MCMV infection. At the time of BMT, mice were infused with 10×10^6 splenic lymphocytes from B/6 mice that were either previously-infected with MCMV (“Immune splenocytes”) or uninfected (“Naive splenocytes”). […] Some mice received lymphocytes that were untreated. The table lists the number of surviving mice (at day +120 post-BMT) and the total number of mice in each group, as well as the percentage survival.
# MCMV [3] = experiment: Adoptive immunotherapy against MCMV lethality, 30x10^6 MCMV-immune lymphocytes, B/6 to F1 BMT; format: in vivo, mouse; details: 30×10^6 immune lymphocytes; 2×10^4 PFU MCMV; P<0.001
# Source text: Spleens were removed from either untreated PepBoy mice (naive donors), or those that had been inoculated with 10^5-10^6 PFU MCMV 2-4 months earlier (immune donors). Polyclonal splenocytes were harvested by perfusing spleens with sterile HBSS/FBS. […]
# splenocytes = experiment: Splenocyte viability in 24 hour culture
# Experimental: Splenocytes were harvested by perfusing spleens with sterile HBSS/FBS, and washed before culture. Splenocytes (10×10^6 cells/ml) were incubated in complete media (RPMI supplemented with 10% heat-inactivated FBS, 50 μM 2-mercaptoethanol, 100 Units/ml penicillin, 100 ug/ml streptomycin, 292 μg/ml L-glutamine, 1 mM sodium pyruvate, and non-essential amino acids added according to the manufacturer's specifications (Biowhittaker, Walkersville, Md.)). […] Overall viability was assessed by counting ethidium bromide/acridine orange stained cells under fluorescence microscopy. Survival of T-cell populations was determined by flow cytometric analyses using fluorochrome conjugated antibodies against mouse CD3, CD4 and CD8. Propidium iodide stain was used to exclude dead cells from the analysis.
# The data represent the mean ±SEM for 4 individual experiments.
# alloreactive T-cells = experiment: Limiting dilution assay of alloreactive cell frequency; details: 20 μg/ml, B10.BR responders stimulated with C57.BL6
# Experimental: Limiting dilution assay of B10.BR responder cells stimulated with C57.BL6.
# The frequency of alloreactive cells was measured using a limiting dilution assay . Briefly, 20,000 responder cells were three-fold serially diluted in 96-well plates with 12 replicate wells per dilution. 10,000 stimulator cells were added to each well in a combined total volume of 150 μl complete media. After 7 days in co-culture, the proliferation of responder cells was measured using tritiated thymidine incorporation. The number of responder cells was plotted versus the natural logarithm of the percentage of negative wells (i.e., wells with cpm readings lesser than media control). The reciprocal of the slope of the regression line yielded the frequency of alloreactive T-cells.
# B/6 to F1 BMT mice = experiment: Lethality (GvHD) of 30x10^6 transferred lymphocytes without MCMV infection; format: in vivo, mouse; details: 30×10^6 lymphocytes; n=20
# Source text: FIGS. 9A-C. Adoptive immunotherapy to prevent MCMV lethality. Conditioned F1 recipients were infused with 5×10^6 TCD BM cells from B/6 donors. Some groups also received simultaneous infusions of 30×10^6 unselected splenocytes from B/6 donors previously infected with MCMV (immune). […] Following transplantation, mice were either infected with 2×10^4 PFU MCMV (A), or vehicle (B). Data from two separate experiments (n=20 mice per group) were combined for display and analysis. […] Survival was not improved when mice were infused with cultured (untreated) splenocytes (P>0.05). […]
# To generate irradiated splenocytes for adoptive immunotherapy, cells were harvested after 24 hour culture and exposed to a single fraction of radiation from a ^137Cs source for a total of 7.5 Gy. […] The cells in a T75 tissue culture flask were then placed on a UVA (320-400 nm) illumination device with a nominal fluorescence of 7 mW (Cole Parmer, Vernon Hill, Ill.) and illuminated for 5 mins to achieve 3.0 J/cm^2 equivalent UVA dose. […]
# One day prior to transplant, recipient F1 mice were conditioned using a ^137Cs source at a dose rate of 1.24 Gy/min. […] Mice were evaluated daily for morbidity and mortality. The development of clinical GvHD was prospectively monitored by weighing mice twice weekly, as well as observing for alopecia and/or ruffled fur, diarrhea, and decreased activity with a “hunched over” appearance. […]
# [4] = system: liver of B/6 to F1 BMT mice; experiment: Histologic assessment of hepatic inflammation (GvHD) and MCMV inclusions; format: in vivo, mouse; details: day +14
# Source text: FIGS. 11A-H. S-59/UVA-treated lymphocytes decrease hepatic MCMV infection without producing GvHD. […] Some mice were infected with 5×10^4 PFU MCMV (B, D, F, G), while others were uninfected (A, C, E). At day +14, livers were harvested from surviving mice and prepared for histologic examination. […] Numerous typical cytomegalic inclusions can be appreciated in a higher power photomicrograph (G). […] In contrast, mice infused with S-59/UVA lymphocytes had normal-appearing hepatic architecture with minimal detectable inflammation whether they were infected (F) or not (E).
# Mice were euthanized, and segments of liver were immersion-fixed in 10% formalin, embedded in paraffin, cut in 8 μm sections, and stained with hematoxylin and eosin. […] Typical eosinophilic intranuclear cytomegalic inclusion bodies were counted in 10 contiguous high-power fields (hpf) on each section as a marker of viral replication. […] The results were decoded, tabulated, and analyzed by another co-author (J.R.).
# A sample of liver was also prepared for microscopic quantitation of MCMV-infected cells and hepatic inflammation. A trained anatomic pathologist (D.J.), blinded to sample identity, scored the sections for MCMV inclusions and hepatic portal inflammation. Representative photomicrographs are shown in FIGS. 11(A-G) and quantitative data analysis in FIG. 11H. […]
# [5] = 20 μg/ml fludarabine, 24 hour culture, % compared to starting cell no., mean ± SEM, 4 experiments
Compound,Decrease of proliferative response to concanavalin A (responder splenocytes; 10 μg/ml con A),Reduction of thymidine incorporation after stimulation with allogeneic antigen (MLR) (responder splenocytes; 7-day MLR),"40 day survival rate, pilot allogeneic transplant experiments [1]","% survival, immune splenocytes (MCMV [2])","Survivors/Total, immune splenocytes (MCMV [2])","% survival, naive splenocytes (MCMV [2])","Survivors/Total, naive splenocytes (MCMV [2])",Survival compared to mice that did not receive adoptive immunotherapy (MCMV [3]),"Splenocyte viability, CD4+ T-cells (splenocytes; [5])","Splenocyte viability, CD8+ T-cells (splenocytes; [5])","Splenocyte viability, all leukocytes (splenocytes; [5])","Splenocyte viability, non T-cells (splenocytes; [5])","Splenocyte viability, all leukocytes (splenocytes; 20 μg/ml fludarabine, 24 hour culture, % compared to starting cell no., mean ± SEM, 4 experiments, listed as fludarabine)","T-cell viability after fludarabine culture (splenocytes; 20 μg/ml, 24 hr)","Viability of predominantly CD8+ cultured CTL's (splenocytes; activated, allo-stimulated CTL's, in contrast to naive spleen cells)",Decrease in the frequency of allo-reactive T-cells (alloreactive T-cells),Frequency of alloreactive cells in fludarabine treated culture (alloreactive T-cells; untreated culture 1/205),Mice that died without MCMV infection (B/6 to F1 BMT mice),Portal inflammation score (scale 1-5) ([4]; MCMV infected),Portal inflammation score (scale 1-5) ([4]; not MCMV infected)
9-beta-D-arabinosyl-2-fluoroadenine [Fludarabine],37%,62%,most favorable,71%,24/34,23%,8/35,significantly improved survival,69.0 ± 9.9%,62.1 ± 12.9%,41.6 ± 7.8%,33.6 ± 6.4%,approximately 42%,60-70%,not affected,66%,1/621,,,
Cc1oc2c(C)c3oc(=O)cc(C)c3cc2c1COCCN [S-59],,,,90%,9/10,30%,3/10,significantly improved survival,,,,,,,,,,none,3.0,2.3
